{"source": "patent US6372766B1", "about": "“Substituted 2-(2′-pyridyloxy)phenylacetamides, as fungicides and pesticides” (priority 1997, dated 2002)", "data": [{"system": "Puccinia recondita", "experiment": "Action against Puccinia recondita on wheat (wheat leaf rust)", "format": "in vivo", "conditions": "63 ppm; wheat \"Frühgold\"; sprayed the day after infection; 7 days; untreated plants 75%", "values": [{"compound": "CNC(=O)/C(=N/OC)c1ccccc1COc1ncc(C(F)(F)F)cc1F", "note": "[I-1, α-anti-methoxyimino-N-methyl-2-(3-fluoro-5-trifluoromethyl-2-pyridyloxy)methylphenyl-acetamide]", "infection (extent of rust fungus development on leaves)": "no infection"}, {"compound": "CNC(=O)/C(=N/OC)c1ccccc1COc1ncc(C(F)(F)F)cc1C", "note": "[I-2, α-anti-methoxyimino-N-methyl-2-(3-methyl-5-trifluoromethyl-2-pyridyloxy)methyl-phenylacetamide]", "infection (extent of rust fungus development on leaves)": "no infection"}, {"compound": "CNC(=O)/C(=N/OC)c1ccccc1COc1nc(Cl)ccc1C(F)(F)F", "note": "[I-3]", "infection (extent of rust fungus development on leaves)": "no infection"}, {"compound": "CNC(=O)/C(=N/OC)c1ccccc1COc1nc(Cl)c(C(F)(F)F)cc1Cl", "note": "[I-6]", "infection (extent of rust fungus development on leaves)": "no infection"}, {"compound": "CNC(=O)/C(=N/OC)c1ccccc1COc1ncc(C(F)F)cc1Cl", "note": "[I-8]", "infection (extent of rust fungus development on leaves)": "no infection"}]}, {"system": "Nephotettix cincticeps", "experiment": "Action against Nephotettix cincticeps (green rice leafhopper), contact action", "format": "in vivo", "conditions": "treated filter paper dishes, adult leafhoppers, mortality after 24 hours", "source_text": "The active compounds were formulated\na. as a 0.1% solution in acetone or\nb. as a 10% emulsion in a mixture of 70% by weight of cyclohexanone, 20% by weight of Nekanil® LN (Lutensol® AP6, wetting agent having emulsifying and dispersing action based on ethoxylated alkylphenols) and 10% by weight of Wettol® EM (nonionic emulsifier based on ethoxylated castor oil)\nand diluted in the case of a. with acetone and in the case of b. with water to give the desired concentration.\nAfter the experiments had ended, in each case the lowest concentration was determined at which the compounds still caused an 80 to 100% inhibition or mortality in comparison with untreated control experiments (critical or minimal concentration).\nFilter paper dishes (Ø 9 cm) were treated with 1 ml of aqueous preparations of active compounds and subsequently populated with five adult leafhoppers. After 24 hours, the mortality was determined.", "units": {"critical concentration (lowest concentration still causing 80 to 100% inhibition or mortality)": "mg"}, "values": [{"compound": "CNC(=O)/C(=N/OC)c1ccccc1COc1ncc(C(F)(F)F)cc1C", "note": "[I-2, α-anti-methoxyimino-N-methyl-2-(3-methyl-5-trifluoromethyl-2-pyridyloxy)methyl-phenylacetamide]", "critical concentration (lowest concentration still causing 80 to 100% inhibition or mortality)": 0.2}]}]}
